From patent US6989263B1, “Method for identifying and using compounds that inactivate HIV-1 and other retroviruses by attacking highly conserved zinc fingers in the viral nucleocapsid protein” (The United States of America as represented by the …, priority 1994, dated 2006)

Legend:
[1] = biological target: reverse transcriptase enzyme (Human immunodeficiency virus type 1 group M subtype B, UniProt P04585); conditions: cited from earlier work
HV-1 protease = HV-1 protease (Human immunodeficiency virus type 1 group M subtype B, UniProt P04585); conditions: cited from earlier work
HIV-1MN = experiment: Effect of NOBA on intact HIV-1MN (p24, zinc, TCIU of pelleted virus); assay type: cell-based; conditions: for Zn: pelleted virus
HIV-1 (MN) p7NC = biological target: T1, HIV-1 (MN) p7NC (Human immunodeficiency virus type 1 group M subtype B, UniProt P05888); experiment: Intrinsic Trp-37 fluorescence quenching of p7NC; assay type: biochemical; conditions: Trp-37 fluorescence, zinc-reconstituted p7NC
T1 construct: The NC protein of HIV-1 (MN) p7NC was expressed in E. coli; made in house; host or cells: E. coli (vector pMAL-c)
Source text: The NC protein of HIV-1 (MN) p7NC was expressed in E. coli. The coding sequence for HIV-1(MN) p7NC was cloned and expressed using an inducible E. coli promoter in the vector pMAL-c (New England Biolabs Inc., Beverly, Mass.). The protein was expressed as a maltose-binding fusion protein and released by proteolysis with Factor Xa. HIV-1(MN) p7NC was purified by HPLC and characterized, including complete amino acid sequence analysis. p7NC was purified by high-pressure liquid chromatography (HPLC) and reconstituted with two equivalents of zinc to generate native protein as described (M. F. Summers et al., Protein Sci. 1, 563 (1992)).
Coordination of Zn^+2 enhances the intrinsic fluorescence of the single tryptophan (Trp-37) in the second zinc finger. […] The initial phase of the reaction with Cu^+2 (T1/2<20 seconds) gave 70% quenching of the original fluorescence, followed by a much slower phase (T1/2 ca. 6 minutes), resulting in a final limiting quenching of 85%.
The first quenching phase was a second order reaction, whereas the second phase was independent of protein concentration or oxidizing species.

genomic RNA = conditions: cited from earlier work
lymphocytes = conditions: cited from earlier work
[2] = biological target: T2, HIV NC protein in intact virus (Human immunodeficiency virus type 1 group M subtype B, UniProt P05888); experiment: Cross-linking of NC protein in intact HIV (non-reducing gel-mobility shift, western blot); assay type: biochemical, HIV-1
T2 construct: endogenous in cells; host or cells: intact HIV virions
Source text: Purified concentrated retrovirus and antisera against the purified NC protein of the virus can be used to test the ability of a specific compound to penetrate the virus and react with the NC protein by forming disulfide complexes in the core of the virus. The compound is mixed with the whole retrovirus under reaction conditions appropriate for the compound. The virus is then removed from the reagent by centrifugation and disrupted in, e.g, standard SDS-PAGE sample buffer with (reduced) and without (non-reduced) 2-mercaptoethanol. The viral proteins are then separated by standard SDS-PAGE and the sample examined for the presence or absence of the monomeric NC protein in the non-reduced sample. Depending upon the virus used in the experiment and the conditions of electrophoresis, the NC protein can be visualized by protein staining methods, or by immuno-blot (e.g., western) methods. Compounds which react with the NC protein by attacking the zinc finger complexes and forming disulfide cross-linked products (i.e., which generate multimers in the mobility shift assay) inactivate the virus. Thus, compounds of interest (i.e., those which cause cross-linking) reduced the amount of monomeric NC protein detected.
In order to determine whether HIV-1MN was inactivated by NOBA, the virus was incubated with varying concentrations of NOBA (3.0, 0.3, 0.03 and 0 mM) as in Table 1. The reaction products were pelleted by centrifugation, and separated by SDS-PAGE under reducing (2% 2-mercaptoethanol, panel A), or non-reducing conditions (panel B). p7NC was visualized by immunoblot analysis using monospecific rabbit antisera to the purified NC proteins as per L. E. Henderson et al., J. Virol. 66:1856 (1992).
Disulfide reagents were further tested for their ability to disrupt NC structure in the virus, based on their ability to cause inter-NC cysteine disulfide bonds (i.e., cross-linking) in the intact virus. The formation of inter-NC cysteine disulfides creates NC multimers, which migrate through a non-reducing gel at a different rate than NC monomers, as described above. Intact HIV virus (generally 12.5 μM) was exposed to the specified reagent (generally 25 μM) for varying lengths of time and electrophoresed through a non-reducing SDS-polyacrylamide gel. HIV NC monomers and multimers were visualized by western blot analysis as described above in Example 3. The approximate time required to cross-link one-half of the NC proteins in the virus at the specified reaction conditions was then determined. […] The top number in the cells of the X-link column in Table 2 refers to the approximate time in minutes required for one-half of the HIV NC proteins to become cross-linked.

HIV-1 = conditions: incubation of HIV-1; cited from earlier work
proviral DNA synthesis = conditions: cited from earlier work
[3] = biological target: HIV-1 CCHC zinc finger array (Human immunodeficiency virus type 1 group M subtype B, UniProt P04591); conditions: incubation of HIV-1; cited from earlier work

Structure (SMILES): NC(=O)c1cccc(N=O)c1 [NOBA, 3-nitrosobenzamide]
- effect on the reverse transcriptase enzyme [1]: without direct impairment
- enzymatic activity of HV-1 protease (HV-1 protease): did not influence
- virus inactivated (HIV-1MN; 0.03 mM, ratio of NOBA to zinc fingers 50:1): greater than 99%
- tissue culture infectious unit (TCIU/ml) (HIV-1MN; NOBA 0.03 mM, 2 hours): 1.0 × 10^3 TCIU/ml
- Zn (HIV-1MN; NOBA 0.03 mM, 2 hours): 0.21 µg/mL
- Zn (HIV-1MN; NOBA 0.3 mM, 2 hours): 0.21 µg/mL
- Zn (HIV-1MN; NOBA 3.0 mM, 2 hours): 0.11 µg/mL
- change in intrinsic fluorescence of p7NC on incubation (HIV-1 (MN) p7NC): rapid biphasic decrease in fluorescence
- levels of genomic RNA in the inactivated virus (genomic RNA): did not influence
- bindings of virus to lymphocytes (lymphocytes): did not influence
- cross-linking of the HIV-1 NC protein in intact virus (gel-mobility shift), in words [2]: caused a cross-linking of the HIV-1 NC protein
- amounts of detected p7NC under non-reducing conditions ([2]; HIV-1MN, NOBA 3.0, 0.3, 0.03 mM, immunoblot): decreased with increasing NOBA concentration
- viral inactivation (HIV-1): viral inactivation
- proviral DNA synthesis (proviral DNA synthesis): blocked
- zinc loss from the HIV-1 CCHC zinc finger array [3]: loss of zinc
